This note sets out measurements from patent US9302991B2, “Arylamide derivatives as TTX-S blockers” (RaQualia Pharma Inc., priority 2010, dated 2016).

The experiment concerns the target T1, human Nav1.7 channels (Homo sapiens, UniProt Q15858).
T1 construct: expressed in transfected cells; host or cells: CHO
Nature of the experiment: FRET assay, human Nav1.7 (EFS on FDSS). The class given is cell-based. The settings on record: CHO cells expressing human Nav1.7, read-out: IC50 against Nav1.7. As to the method: The inhibitory activities of compounds against voltage gated sodium channels are determined by methodology well known in the art.
The ability of the aryl substituted carboxamide derivatives of the formula (I) to inhibit the NaV1.3, Nav1.7 and Nav1.5 channels is measured by Fluorescence Resonance Energy Transfer (FRET) assay and electrophysiology assay described below.
This screen is used to determine the effects of compounds on human Nav1.3, human Nav1.7, and human Nav1.5 channels, utilising electrical field stimulation (EFS) system in 96-well plate format on FDSS (Hamamatsu Photonics) platform. The change of membrane potential is monitored with FRET dye pair, oxonol (DiSBAC2(3)) and coumarin (CC2-DMPE).
CHO cells expressing human Nav1.7 channels are grown in T225 flasks, in a 5% CO2 humidified incubator to about 80% confluence. Media composition consists of HAM/F12 with Glutamax 1.10% FCS, 100 units/mL Penicillin and 100 microgram/mL Hygromycin.
Protocol: • Seed each cell lines (1×10^5 cells/well) into poly-D-lysine coated 96-well plates prior to experimentation. • Incubate at 37° C. in 5% CO2 for 24 hours. • Wash each well with assay buffer (140 mM NaCl, 4.5 mM KCl, 10 mM D-Glucose, 2 mM CaCl2, 1 mM MgCl2, 10 mM HEPES, pH 7.4 adjusted with NaOH) twice. • Add 1st loading solution containing 10 microM CC2-DMPE and 0.06% Pluronic F-127 in assay buffer. • Incubate the plate at room temperature in dark for 1 hour. • Remove 1st loading solution and added 2nd loading solution containing 15 microM DiSBAC2(3), 0.555 mM VABSC-1 and 0.004% Pluronic F-127 in assay buffer. • Place the plate under the dark at room temperature for 25 minutes. • Add compound solutions into the assay plate. • Set the assay plate in FDSS and placed an EFS device on the plate. • Measure EFS-induced fluorescent response by FDSS.
The data are analyzed and reported as normalized ratios of intensities measured at […]. The process of calculating these ratios is performed as follows:
This analysis is performed using a computerized specific program designed for FDSS generated data. Fluorescence ratio values are plotted using XLfit to determine an IC50 value for each compound.

Structures are written as SMILES.

T1 sequence (Q15858 whole entry): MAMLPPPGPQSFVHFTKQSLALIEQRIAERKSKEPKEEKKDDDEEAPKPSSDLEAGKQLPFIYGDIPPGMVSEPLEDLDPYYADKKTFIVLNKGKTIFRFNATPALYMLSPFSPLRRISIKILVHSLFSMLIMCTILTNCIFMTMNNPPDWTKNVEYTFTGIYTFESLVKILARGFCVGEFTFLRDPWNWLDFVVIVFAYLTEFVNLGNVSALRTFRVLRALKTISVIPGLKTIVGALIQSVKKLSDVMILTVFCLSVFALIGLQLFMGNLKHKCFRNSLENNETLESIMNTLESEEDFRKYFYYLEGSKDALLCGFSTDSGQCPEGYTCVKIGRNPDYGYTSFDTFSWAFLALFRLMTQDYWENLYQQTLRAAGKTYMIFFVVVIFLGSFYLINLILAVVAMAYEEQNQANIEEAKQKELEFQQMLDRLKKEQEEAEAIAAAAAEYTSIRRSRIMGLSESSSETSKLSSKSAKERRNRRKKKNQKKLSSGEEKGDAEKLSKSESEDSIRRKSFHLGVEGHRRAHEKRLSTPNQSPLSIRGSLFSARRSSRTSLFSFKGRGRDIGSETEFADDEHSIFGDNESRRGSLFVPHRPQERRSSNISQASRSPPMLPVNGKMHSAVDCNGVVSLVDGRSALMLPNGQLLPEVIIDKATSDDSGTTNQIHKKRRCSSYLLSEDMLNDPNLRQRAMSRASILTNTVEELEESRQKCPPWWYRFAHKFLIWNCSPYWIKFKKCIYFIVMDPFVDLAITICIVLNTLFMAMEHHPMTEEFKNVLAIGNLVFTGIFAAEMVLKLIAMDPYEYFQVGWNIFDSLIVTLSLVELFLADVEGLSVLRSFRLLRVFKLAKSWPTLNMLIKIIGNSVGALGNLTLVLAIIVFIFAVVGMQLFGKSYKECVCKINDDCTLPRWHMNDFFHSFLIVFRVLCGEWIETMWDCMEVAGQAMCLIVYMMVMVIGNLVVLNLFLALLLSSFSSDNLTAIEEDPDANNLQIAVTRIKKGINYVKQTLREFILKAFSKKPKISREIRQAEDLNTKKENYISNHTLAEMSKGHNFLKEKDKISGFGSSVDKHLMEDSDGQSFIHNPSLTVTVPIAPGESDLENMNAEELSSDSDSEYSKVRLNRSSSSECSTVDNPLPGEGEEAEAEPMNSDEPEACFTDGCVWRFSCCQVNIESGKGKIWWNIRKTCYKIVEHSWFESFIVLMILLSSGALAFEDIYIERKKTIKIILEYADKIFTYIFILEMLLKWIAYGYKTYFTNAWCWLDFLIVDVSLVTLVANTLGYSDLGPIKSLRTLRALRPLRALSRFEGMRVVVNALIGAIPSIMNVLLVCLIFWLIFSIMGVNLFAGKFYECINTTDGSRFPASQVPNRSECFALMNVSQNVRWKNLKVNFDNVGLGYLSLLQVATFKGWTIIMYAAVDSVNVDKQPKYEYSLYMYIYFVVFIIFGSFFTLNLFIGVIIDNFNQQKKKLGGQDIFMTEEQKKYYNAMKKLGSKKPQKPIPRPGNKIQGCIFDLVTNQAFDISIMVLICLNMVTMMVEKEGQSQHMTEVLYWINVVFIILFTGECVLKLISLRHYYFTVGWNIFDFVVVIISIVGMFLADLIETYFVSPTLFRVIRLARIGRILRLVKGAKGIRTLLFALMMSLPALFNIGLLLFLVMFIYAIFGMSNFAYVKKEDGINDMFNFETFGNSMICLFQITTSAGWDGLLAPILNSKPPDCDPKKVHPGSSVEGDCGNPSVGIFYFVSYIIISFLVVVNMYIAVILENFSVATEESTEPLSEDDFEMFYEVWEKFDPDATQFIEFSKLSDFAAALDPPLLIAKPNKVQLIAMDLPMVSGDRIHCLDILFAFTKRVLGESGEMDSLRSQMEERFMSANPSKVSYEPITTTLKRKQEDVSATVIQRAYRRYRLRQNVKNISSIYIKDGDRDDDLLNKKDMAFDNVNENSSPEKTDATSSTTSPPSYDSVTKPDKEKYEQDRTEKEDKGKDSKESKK

One may read the IC50 as the concentration at which inhibition is half-maximal. `CC(C)C(=O)Nc1nccc(C(=O)NC(C)c2cnc(OCC(F)(F)F)c(Cl)c2)n1` (single isomer, unassigned) [Example 212, N-(1-(5-chloro-6-(2,2,2-trifluoroethoxy)pyridin-3-yl)ethyl)-2-isobutyramidopyrimidine-4-carboxamide]: the IC50 was under 1000 nM.

Turning to `CC(NC(=O)c1ccnc(NC(=O)C2CCC2)n1)c1cnc(OCC(F)(F)F)c(Cl)c1` (single isomer, unassigned) [Example 213, N-(1-(5-chloro-6-(2,2,2-trifluoroethoxy)pyridin-3-yl)ethyl)-2-(cyclobutanecarboxamido)pyrimidine-4-carboxamide], the IC50 was under 1000 nM. In the case of `CCC(=O)Nc1nc(C)cc(C(=O)NC(C)c2cnc(OCC(F)(F)F)c(Cl)c2)n1` (single isomer, unassigned) [Example 214, N-(1-(5-chloro-6-(2,2,2-trifluoroethoxy)pyridin-3-yl)ethyl)-6-methyl-2-propionamidopyrimidine-4-carboxamide], the IC50 is under 1000 nM. Take `Cc1cc(C(=O)NC(C)c2cnc(OCC(F)(F)F)c(Cl)c2)nc(NC(=O)C(C)C)n1` (single isomer, unassigned) [Example 216, N-(1-(5-chloro-6-(2,2,2-trifluoroethoxy)pyridin-3-yl)ethyl)-2-isobutyramido-6-methylpyrimidine-4-carboxamide]: the IC50 was under 1000 nM. In the case of `CC(C)C(=O)Nc1cc(C(=O)NC(C)c2cnc(OCC(F)(F)F)c(F)c2)ccn1` (single isomer, unassigned) [Example 220, N-(1-(5-fluoro-6-(2,2,2-trifluoroethoxy)pyridin-3-yl)ethyl)-2-isobutyramidoisonicotinamide], the IC50 is under 1000 nM. As for `CC(=O)Nc1nccc(C(=O)NC(C)c2cnc(OCC(F)(F)F)c(C)c2)n1` (single isomer, unassigned) [Example 234, 2-acetamido-N-(1-(5-methyl-6-(2,2,2-trifluoroethoxy)pyridin-3-yl)ethyl)pyrimidine-4-carboxamide], the IC50 was under 1000 nM. On to `CCC(=O)Nc1cc(C(=O)NCc2ccc(O[C@H](C)C(F)(F)F)nc2)ccn1` (single isomer, unassigned) [Example 316], for which the IC50 is under 1000 nM. Regarding `CCC(=O)Nc1cc(C(=O)NCc2ccc(O[C@H](C)C(F)(F)F)nc2)cc(C)n1` (single isomer, unassigned) [Example 318], the IC50 was under 1000 nM. As to `CC(C)C(=O)Nc1cc(C(=O)NCc2ccc(O[C@H](C)C(F)(F)F)nc2)ccn1` (single isomer, unassigned) [Example 319], the IC50 was under 1000 nM.

With `CC(=O)Nc1cc(C(=O)NCc2ccc(O[C@H](C)C(F)(F)F)nc2)cc(C)n1` (single isomer, unassigned) [Example 320], the IC50 was under 1000 nM. `COc1cc(C(C)NC(=O)c2cc(C)nc(NC(C)=O)c2)cnc1OCC(F)(F)F` (single isomer, unassigned) [Example 330, 2-acetamido-N-(1-(5-methoxy-6-(2,2,2-trifluoroethoxy)pyridin-3-yl)ethyl)-6-methylisonicotinamide]: the IC50 was under 1000 nM. For the compound `CCCC(=O)Nc1cc(C(=O)NC(C)c2cnc(OCC(F)(F)F)c(OC)c2)ccn1` (single isomer, unassigned) [Example 331, 2-butyramido-N-(1-(5-methoxy-6-(2,2,2-trifluoroethoxy)pyridin-3-yl)ethyl)isonicotinamide], the IC50 is under 1000 nM. The same measure for `Cc1cc(C(C)NC(=O)c2ccnc(NC(=O)C(C)C)c2)cnc1OCC(F)(F)F` (single isomer, unassigned) [Example 378, 2-isobutyramido-N-(1-(5-methyl-6-(2,2,2-trifluoroethoxy)pyridin-3-yl)ethyl)isonicotinamide]: under 1000 nM; for `CC(=O)Nc1cc(C(=O)NC(C)c2cnc(OCC(F)(F)F)c(C)c2)cc(C)n1` (single isomer, unassigned) [Example 379, 2-acetamido-6-methyl-N-(1-(5-methyl-6-(2,2,2-trifluoroethoxy)pyridin-3-yl)ethyl)isonicotinamide]: under 1000 nM. On to `CC(=O)Nc1cc(C(=O)N(C)C(C)c2cnc(OCC(F)(F)F)c(C)c2)cc(C)n1` (single isomer, unassigned) [Example 391, 2-acetamido-N,6-dimethyl-N-(1-(5-methyl-6-(2,2,2-trifluoroethoxy)pyridin-3-yl)ethyl)isonicotinamide], for which the IC50 was under 1000 nM. The same measure for `CC(=O)Nc1cc(C(=O)N(C)C(C)c2cnc(OCC(F)(F)F)c(C)c2)ccn1` (single isomer, unassigned) [Example 392, 2-acetamido-N-methyl-N-(1-(5-methyl-6-(2,2,2-trifluoroethoxy)pyridin-3-yl)ethyl)isonicotinamide]: under 1000 nM; for `COc1cc(C(C)NC(=O)c2ccnc(NC(=O)C3CC3)n2)cnc1OCC(F)(F)F` (single isomer, unassigned) [Example 400, 2-(cyclopropanecarboxamido)-N-(1-(5-methoxy-6-(2,2,2-trifluoroethoxy)pyridin-3-yl)ethyl)pyrimidine-4-carboxamide]: under 1000 nM. Regarding `CC(NC(=O)c1ccnc(NC(=O)C2CC2)n1)c1ccc(OCC(F)(F)F)cc1` (single isomer, unassigned) [Example 405, 2-(cyclopropanecarboxamido)-N-(1-(4-(2,2,2-trifluoroethoxy)phenyl)ethyl)pyrimidine-4-carboxamide], the IC50 is under 1000 nM.

Consider `CC(C)C(=O)Nc1cc(C(=O)NC(C)c2cccc(OC(F)(F)F)c2)ccn1` (single isomer, unassigned) [Example 418, 2-isobutyramido-N-(1-(3-(trifluoromethoxy)phenyl)ethyl)isonicotinamide], for which the IC50 is under 1000 nM. Take `CC(=O)Nc1cc(C(=O)NC(C)c2cccc(OC(F)(F)F)c2)cc(C)n1` (single isomer, unassigned) [Example 420, 2-acetamido-6-methyl-N-(1-(3-(trifluoromethoxy)phenyl)ethyl)isonicotinamide]: the IC50 was under 1000 nM. Consider `Cc1cc(C(=O)NC(C)c2cccc(OC(F)(F)F)c2)cc(NC(=O)C(C)(C)O)n1` (single isomer, unassigned) [Example 421, 2-(2-hydroxy-2-methylpropanamido)-6-methyl-N-(1-(3-(trifluoromethoxy)phenyl)ethyl)isonicotinamide], for which the IC50 is under 1000 nM.

Take `C=CC(=O)Nc1cc(C(=O)NC(C)c2ccc(OCC(F)(F)F)nc2)cc(C)n1` (single isomer, unassigned) [Example 482, 2-acrylamido-6-methyl-N-(1-(6-(2,2,2-trifluoroethoxy)pyridin-3-yl)ethyl)isonicotinamide]: the IC50 was under 1000 nM. With `Cc1cc(C(=O)NC(C)c2cnc(OCC(F)(F)F)c(F)c2)cc(NC(=O)C(C)C)n1` (single isomer, unassigned) [Example 486, N-(1-(5-fluoro-6-(2,2,2-trifluoroethoxy)pyridin-3-yl)ethyl)-2-isobutyramido-6-methylisonicotinamide], the IC50 is under 1000 nM.

As to `COc1cc(C(C)NC(=O)c2cc(C)nc(NC(=O)C(C)C)c2)cnc1OCC(F)(F)F` (single isomer, unassigned) [Example 487, 2-isobutyramido-N-(1-(5-methoxy-6-(2,2,2-trifluoroethoxy)pyridin-3-yl)ethyl)-6-methylisonicotinamide], the IC50 was under 1000 nM. In the case of `Cc1cc(C(=O)NC(C)c2cnc(OCC(F)(F)F)c(Cl)c2)cc(NC(=O)C(C)C)n1` (single isomer, unassigned) [Example 521, N-(1-(5-chloro-6-(2,2,2-trifluoroethoxy)pyridin-3-yl)ethyl)-2-isobutyramido-6-methylisonicotinamide] it was under 1000 nM; in that of `CC(C)C(=O)Nc1cc(C(=O)NC(C)c2cnc(OCC(F)(F)F)c(Cl)c2)ccn1` (single isomer, unassigned) [Example 522, N-(1-(5-chloro-6-(2,2,2-trifluoroethoxy)pyridin-3-yl)ethyl)-2-isobutyramidoisonicotinamide], under 1000 nM.

Consider `CC(=O)Nc1cc(C(=O)N[C@H](C)c2cccc(C(F)(F)F)c2)cc(C)n1` (single isomer, unassigned) [Example 529], for which the IC50 was under 1000 nM.

For the compound `CC(C)C(=O)Nc1cc(C(=O)N[C@H](C)c2cccc(C(F)(F)F)c2)ccn1` (single isomer, unassigned) [Example 530], the IC50 was under 1000 nM. As to `Cc1cc(C(=O)N[C@H](C)c2cccc(C(F)(F)F)c2)cc(NC(=O)C(C)C)n1` (single isomer, unassigned) [Example 531], the IC50 was under 1000 nM.
